In US6700013B2, “Tricyclic fused heterocycle compounds, process for preparing the same and use thereof” (Nippon Suisan Kaisha, Ltd., priority 1999, dated 2004):

Columns and labels:
[1] = tested on: actively sensitized guinea pigs; experiment: Antigen induced airway hypersensitivity, airway reactivity to acetylcholine (PC100ACh); format: in vivo, guinea pig; conditions: orally 10 mg/kg 16 hours and 2 hours before the OVA challenge; 22 to 26 hours after challenge
Text: Bronchial asthma is a disease characterized by bronchial contraction, airway hypersensitivity and infiltration of inflammatory cells into the airway. Airway hypersensitivity is a condition in which the airway sensitively produces a contraction response to various slight stimuli. Particularly, airway hypersensitivity is considered to be a common feature among patients suffering from allergic bronchial asthma. This experimental system in which actively sensitized guinea pigs are used is useful as a airway hypersensitivity model. […]
The specific airway resistance (sRaw) of wake guinea pigs was measured by the double flow plethysmography with the use of airway resistance measuring equipment (“Pulmos-1”, M.I.P.S., Japan).
[…], from twenty-two to twenty-six hours after the antigen challenge, the guinea pigs were placed in an animal chamber and allowed to inhale a physiological saline and acetylcholine (hereinafter referred to as “ACh”) solutions of 0.0625, 0.125, 0.25, 0.5, 1 and 2 mg/mL , respectively, in the order named, each for one minute until sRaw came to the value at least twice the baseline sRaw (sRaw after the inhalation of the physiological saline). The ACh concentration (hereinafter referred to as “PC100ACh”) necessary for 100% increase in the baseline sRaw was calculated from the concentration of ACh and sRaw-resistance curve. […]

[2] = tested on: pig tracheal smooth muscles; experiment: Dilating action on contraction of tracheal smooth muscles (high K+ contraction, Magnus tube); conditions: Sus scrofa, 2 h; K+ contraction (72.7 mM); test substance final concentration 10 μM; two hours after addition; tension before addition = 100%; read-out: Relative Contraction Force (%)
Text: With the use of pig tracheal muscles, the action of the compounds of the present invention on contraction of tracheal muscles has been investigated. The method refers to “Smooth Muscle Manual” (published by Bun'eido Publishing Co.), pp. 125-137. The trachea cartilage mucous membrane and submucous tissue of a pig trachea were removed to prepare a specimen of tracheal smooth muscles having a major diameter of about 10 mm and a minor diameter of about 1.5 mm. This specimen was suspended in a Magnus tube which was aerated with a mixed gas of 95% of oxygen and 5% of carbon dioxide and contained nutrient solution at 37° C. and a load of 0.8 g was applied to this specimen, and after the tension of the specimen was stabilized, the nutrient solution was replaced with a high concentration K^+ solution (72.7 mM) to provoke K^+ contraction. The procedure of replacing the solution in the Magnus tube with the nutrient solution to wash the solution and provoking K^+ contraction with the high concentration K^+ solution was repeated again until the contraction force became constant. When the tension of the K^+ contraction became constant, each of the compounds described in Table 19 (the structural formula of the Comparative Example being described in the right side of the compound of the above described Example 180) was added to the high concentration K^+ solution as the test substance to measure the change in tension. The test substance was dissolved in dimethyl sulfoxide at a predetermined concentration and added to the high concentration K^+ solution in such a manner that the final concentration came to 10 μM. The trachea cartilage mucous membrane and submucous tissue of a pig trachea were removed to prepare a specimen of tracheal smooth muscles having a major diameter of about 10 mm and a minor diameter of about 1.5 mm. This specimen was suspended in a Magnus tube which was aerated with a mixed gas of 95% of oxygen and 5% of carbon dioxide and contained nutrient solution at 37° C. and a load of 0.8 g was applied to this specimen, and after the tension of the specimen was stabilized, the nutrient solution was replaced with a high concentration K+ solution (72.7 mM) to provoke K+ contraction. The procedure of replacing the solution in the Magnus tube with the nutrient solution to wash the solution and provoking K+ contraction with the high concentration K+ solution was repeated again until the contraction force became constant. When the tension of the K+ contraction became constant, each of the compounds described in Table 19 (the structural formula of the Comparative Example being described in the right side of the compound of the above described Example 180) was added to the high concentration K+ solution as the test substance to measure the change in tension. The test substance was dissolved in dimethyl sulfoxide at a predetermined concentration and added to the high concentration K+ solution in such a manner that the final concentration came to […]. Further, the final concentration of dimethyl sulfoxide added was made 0.3% or less. The change in tension was led to a strain pressure amplifier (“AP-621G3”, manufactured by Nippon Koden Kogyo) through a FD pickup transducer (“TB-611T”, manufactured by Nippon Koden Kogyo) and recorded on a recorder (“R-64V”, manufactured by Rika Electric). When the tension before replacement with the high concentration K+ solution was regarded as 0% and the last tension which was generated by the high concentration K+ solution before the addition of a test substance was regarded as 100%, the contraction force of the tracheal smooth muscle two hours after addition of a test substance was shown as relative percentage. […]

[3] = tested on: actively sensitized guinea pigs; experiment: Inhibition of immediate (IAR) and late (LAR) asthmatic response, specific airway resistance (sRaw); format: in vivo, guinea pig; conditions: orally 10 mg/kg one hour before OVA challenge
Description: It is reported [Pepys, J. and Hutchcroft, B. J., Bronchial provocation tests in etiologic diagnosis and Analysis of asthma, Am. Rev. Respir. Dis., 112, 829-859 (1975)] that when asthmatic patients are allowed to inhale an antigen, immediate asthmatic response (hereinafter referred to as “IAR”) whose peak is 15 to 30 minutes after inhalation is provoked and recovery from this response is within two hours; however, in 60% of the asthmatic patients late asthmatic response (hereinafter referred to as “LAR”) appears 4 to 12 hours after the inhalation of the antigen. […] On the other hand, it is known that when the guinea pigs actively sensitized with an antigen are allowed to inhale the antigen again, biphasic airway responses are caused. Accordingly, as the animal model line of IAR and LAR which are recognized in the above described asthmatic patients, the asthmatic model using guinea pigs is widely used in the evaluation of drugs for asthma and the like. […]
The specific airway resistance (hereinafter referred to as “sRaw”) was measured, 1 minute, 10 minutes and 30 minutes after challenge and furthermore, 1 hour, 2 hours, 3 hours, 4 hours, 5 hours, 6 hours, 7 hours, 8 hours and 24 hours, each time for the duration of 1 minute with the use of airway resistance measuring equipment (“Pulmos-1”, M.I.P.S., Japan). […]

[4] = tested on: actively sensitized guinea pigs; experiment: Number of inflammatory cells in bronchoalveolar lavage fluid after antigen challenge; format: in vivo, guinea pig; conditions: orally 10 mg/kg one hour before OVA challenge
Description: It is reported [Pepys, J. and Hutchcroft, B. J., Bronchial provocation tests in etiologic diagnosis and Analysis of asthma, Am. Rev. Respir. Dis., 112, 829-859 (1975)] that when asthmatic patients are allowed to inhale an antigen, immediate asthmatic response (hereinafter referred to as “IAR”) whose peak is 15 to 30 minutes after inhalation is provoked and recovery from this response is within two hours; however, in 60% of the asthmatic patients late asthmatic response (hereinafter referred to as “LAR”) appears 4 to 12 hours after the inhalation of the antigen. […] On the other hand, it is known that when the guinea pigs actively sensitized with an antigen are allowed to inhale the antigen again, biphasic airway responses are caused. Accordingly, as the animal model line of IAR and LAR which are recognized in the above described asthmatic patients, the asthmatic model using guinea pigs is widely used in the evaluation of drugs for asthma and the like. Furthermore, it is known that in the IAR and LAR model of guinea pigs, when actively sensitized guinea pigs are exposed to an antigen, infiltration of inflammatory cells into the airway occurs together with the biphasic airway contraction to cause various inflammatory disorders to airway tissues thereby. Therefore, the number of inflammatory cells in the bronchoalveolar lavage fluid is widely used as the index for the infiltration of inflammatory cells into the airway. Each of the above described actions in the IAR and LAR model of guinea pigs was examined with the compounds of the present invention.
Guinea pigs were allowed to inhale a 1% ovalbumin (“OVA”, sigma-Aldrich Co., U.S.A.) physiological saline for 10 minutes daily continuously for 8 days using of an ultrasonic nebulizer (“NE-U12”, Omron, Japan).
One week after the final sensitization, the guinea pigs were allowed to inhale a 2% “OVA” physiological saline for 5 minutes using of the nebulizer. Twenty-four hours and one hour before challenge, the guinea pigs were dosed with metyrapone (10 mg/kg, Sigma-Aldrich Co., U.S.A.) intravenously, and dosed with pyrilamine (10 mg/kg, Sigma-Aldrich Co., U.S.A.) intraperitoneally 30 minutes before challenge.
Each of the test substances (Compounds of Examples 1 and 4) was formed into a suspension with a 0.5% carboxymethyl cellulose sodium salt (hereinafter referred to as “CMC-Na”) solution at a concentration of 2 mg/mL. One hour before challenge, the guinea pigs were orally dosed with the suspension of the test substance with such a dose so as to be 10 mg/kg. For the control group the medium (a 0.5% CMC-Na solution) was used.
Twenty-three to twenty-four hours after the antigen challenge, the abdominal aorta of the guinea pigs was cut under intraperitoneal anesthesia with “Nembutal” (50 mg/kg) to remove blood and the chest was opened. A tube was inserted in the bronchus and fixed thereto and through this tube, 5 mL (37° C.) of a physiological saline was injected and sucked therethrough; this procedure was repeated twice (10 mL in total) and the recovered fluid was regarded as the bronchoalveolar lavage fluid (hereinafter referred to as “BALF”). BALF was centrifuged at 1,100 rmp at 4° C. for 10 minutes to obtain a precipitate (a pellet). This pellet was suspended in 1 mL of a physiological saline and a Turkliquid was added thereto and the number of leukocytes per μL was counted with a leukocyte counter plate. Centrifugation was repeated under the above described conditions and rabbit serum was added to the obtained pellet to prepare a smear preparation. After drying, the preparation was subjected to the May Grunwald-Giemsa stain. The number of leukocytes was counted by a microscope and the ratio to the total number of cells of neutrophils, eosinophils, macrophages and lymphocytes was obtained and the number of cells per μL was calculated on the basis of this ratio.
The obtained test results were shown by mean values and standard deviations and the student's t-test was carried out. […]

Sprague-Dawley line rats = experiment: Toxicity study of two-week repeated-dose oral administration with rats; format: in vivo; conditions: male, oral, 0, 125 and 500 mg/kg/day repeatedly for two weeks
Description: In order to study the toxicity by repeated-dose administration of compounds, the compounds were dosed orally to Sprague-Dawley line rats (three male rats per group) with 0, 125 and 500 mg/kg/day (a 0.5 w/v % CMC-Na solution) repeatedly for two weeks.

[5] = 24 hours after antigen challenge, average

| Compound | PC100ACh [1] [mg/mL] | activity at 10 µM [2] [%] | IAR (% change in sRaw) inhibited by, compared to the control group [3] [%] | LAR (AUC) inhibited by, compared to the control group ([3]; AUC from 4 hours to 8 hours) [%] | change in number of eosinophils compared to the control group [4] | change in number of lymphocytes compared to the control group [4] | change in number of neutrophils compared to the control group [4] | change in total number of cells compared to the control group [4] | number of cells of eosinophils in bronchoalveolar lavage fluid [4, 5] [µL⁻¹] | number of cells of lymphocytes in bronchoalveolar lavage fluid [4, 5] [µL⁻¹] | number of cells of macrophages in bronchoalveolar lavage fluid [4, 5] | number of cells of neutrophils in bronchoalveolar lavage fluid [4, 5] | total number of cells in bronchoalveolar lavage fluid [4, 5] | Results (toxicity findings) (Sprague-Dawley line rats) |
| --- | --- | --- | --- | --- | --- | --- | --- | --- | --- | --- | --- | --- | --- | --- |
| C[C@@H]1C[C@H]2[C@@H]3CCC4=CC(=O)C=C[C@]4(C)[C@@]3(F)[C@@H](O)C[C@]2(C)[C@@]1(O)C(=O)CO [dexamethasone, Dexamethasone] | 1.14 | – | – | – | – | – | – | – | – | – | – | – | – | – |
| CSc1ccc2c(c1)CC(=O)c1c(O)cc(O)cc1S2 [Example 1, 2-Methylthio-7,9-dihydroxy-10,11-dihydrodibenzo[b,f]thiepin-10-one] | – | 0 | 70 | 77 | tendency | tendency | tendency | significant decrease | 810 | 21 | 1,872 /μL | 1,072 /μL | 3,775 /μL | No abnormalities were recognized |
